From patent US20250034216A1, “STEREOSELECTIVE COVALENT LIGANDS FOR ONCOGENIC AND IMMUNOLOGICAL PROTEINS” (The Scripps Research Institute, priority 2021, published 2025)

Assays:
[1] = molecular target: T1, PNPLA8_C100 (Homo sapiens, UniProt Q9NP80); assay: IA-DTB cysteine engagement; format: binding; conditions: 22Rv1 cells, 20 μM probe, 1 h, relative to DMSO
T1 construct: endogenous in cells; host or cells: 22Rv1
T1 sequence (Q9NP80 1-782): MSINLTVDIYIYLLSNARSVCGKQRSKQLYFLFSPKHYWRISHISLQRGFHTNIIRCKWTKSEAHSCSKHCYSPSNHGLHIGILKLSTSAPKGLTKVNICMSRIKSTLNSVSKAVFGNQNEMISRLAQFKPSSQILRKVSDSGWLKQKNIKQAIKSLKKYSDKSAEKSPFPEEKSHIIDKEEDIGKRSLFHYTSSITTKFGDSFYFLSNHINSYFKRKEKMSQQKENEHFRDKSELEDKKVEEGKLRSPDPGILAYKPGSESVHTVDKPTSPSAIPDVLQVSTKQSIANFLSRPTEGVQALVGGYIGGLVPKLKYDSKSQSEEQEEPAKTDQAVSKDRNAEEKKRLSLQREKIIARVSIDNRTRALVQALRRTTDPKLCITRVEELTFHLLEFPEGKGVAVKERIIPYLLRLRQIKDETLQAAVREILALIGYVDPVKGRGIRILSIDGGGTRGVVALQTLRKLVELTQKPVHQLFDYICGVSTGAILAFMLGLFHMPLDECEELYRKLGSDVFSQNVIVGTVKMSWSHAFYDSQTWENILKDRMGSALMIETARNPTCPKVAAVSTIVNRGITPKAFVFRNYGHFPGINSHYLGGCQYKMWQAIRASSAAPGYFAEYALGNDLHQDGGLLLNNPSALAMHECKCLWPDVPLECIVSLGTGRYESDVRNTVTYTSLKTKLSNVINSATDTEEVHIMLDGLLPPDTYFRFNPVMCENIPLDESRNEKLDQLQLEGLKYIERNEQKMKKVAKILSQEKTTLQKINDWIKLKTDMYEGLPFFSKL
Procedure, shortened: (§1)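 Competitive chemoproteomics: residual cysteine reactivity toward IA-DTB in lysates from probe-treated cells was quantified by TMT reporter ions relative to DMSO-treated controls. Replicates sharing cell line, probe, concentration and duration were averaged.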

[2] = molecular target: T2, ITPR2_C292 (Homo sapiens, UniProt Q14571); assay: IA-DTB cysteine engagement; format: binding; conditions: 22Rv1 cells, 20 μM probe, 1 h, relative to DMSO
T2 construct: endogenous in cells; host or cells: 22Rv1
Procedure, shortened: as §1

T2 sequence (Q14571 whole entry): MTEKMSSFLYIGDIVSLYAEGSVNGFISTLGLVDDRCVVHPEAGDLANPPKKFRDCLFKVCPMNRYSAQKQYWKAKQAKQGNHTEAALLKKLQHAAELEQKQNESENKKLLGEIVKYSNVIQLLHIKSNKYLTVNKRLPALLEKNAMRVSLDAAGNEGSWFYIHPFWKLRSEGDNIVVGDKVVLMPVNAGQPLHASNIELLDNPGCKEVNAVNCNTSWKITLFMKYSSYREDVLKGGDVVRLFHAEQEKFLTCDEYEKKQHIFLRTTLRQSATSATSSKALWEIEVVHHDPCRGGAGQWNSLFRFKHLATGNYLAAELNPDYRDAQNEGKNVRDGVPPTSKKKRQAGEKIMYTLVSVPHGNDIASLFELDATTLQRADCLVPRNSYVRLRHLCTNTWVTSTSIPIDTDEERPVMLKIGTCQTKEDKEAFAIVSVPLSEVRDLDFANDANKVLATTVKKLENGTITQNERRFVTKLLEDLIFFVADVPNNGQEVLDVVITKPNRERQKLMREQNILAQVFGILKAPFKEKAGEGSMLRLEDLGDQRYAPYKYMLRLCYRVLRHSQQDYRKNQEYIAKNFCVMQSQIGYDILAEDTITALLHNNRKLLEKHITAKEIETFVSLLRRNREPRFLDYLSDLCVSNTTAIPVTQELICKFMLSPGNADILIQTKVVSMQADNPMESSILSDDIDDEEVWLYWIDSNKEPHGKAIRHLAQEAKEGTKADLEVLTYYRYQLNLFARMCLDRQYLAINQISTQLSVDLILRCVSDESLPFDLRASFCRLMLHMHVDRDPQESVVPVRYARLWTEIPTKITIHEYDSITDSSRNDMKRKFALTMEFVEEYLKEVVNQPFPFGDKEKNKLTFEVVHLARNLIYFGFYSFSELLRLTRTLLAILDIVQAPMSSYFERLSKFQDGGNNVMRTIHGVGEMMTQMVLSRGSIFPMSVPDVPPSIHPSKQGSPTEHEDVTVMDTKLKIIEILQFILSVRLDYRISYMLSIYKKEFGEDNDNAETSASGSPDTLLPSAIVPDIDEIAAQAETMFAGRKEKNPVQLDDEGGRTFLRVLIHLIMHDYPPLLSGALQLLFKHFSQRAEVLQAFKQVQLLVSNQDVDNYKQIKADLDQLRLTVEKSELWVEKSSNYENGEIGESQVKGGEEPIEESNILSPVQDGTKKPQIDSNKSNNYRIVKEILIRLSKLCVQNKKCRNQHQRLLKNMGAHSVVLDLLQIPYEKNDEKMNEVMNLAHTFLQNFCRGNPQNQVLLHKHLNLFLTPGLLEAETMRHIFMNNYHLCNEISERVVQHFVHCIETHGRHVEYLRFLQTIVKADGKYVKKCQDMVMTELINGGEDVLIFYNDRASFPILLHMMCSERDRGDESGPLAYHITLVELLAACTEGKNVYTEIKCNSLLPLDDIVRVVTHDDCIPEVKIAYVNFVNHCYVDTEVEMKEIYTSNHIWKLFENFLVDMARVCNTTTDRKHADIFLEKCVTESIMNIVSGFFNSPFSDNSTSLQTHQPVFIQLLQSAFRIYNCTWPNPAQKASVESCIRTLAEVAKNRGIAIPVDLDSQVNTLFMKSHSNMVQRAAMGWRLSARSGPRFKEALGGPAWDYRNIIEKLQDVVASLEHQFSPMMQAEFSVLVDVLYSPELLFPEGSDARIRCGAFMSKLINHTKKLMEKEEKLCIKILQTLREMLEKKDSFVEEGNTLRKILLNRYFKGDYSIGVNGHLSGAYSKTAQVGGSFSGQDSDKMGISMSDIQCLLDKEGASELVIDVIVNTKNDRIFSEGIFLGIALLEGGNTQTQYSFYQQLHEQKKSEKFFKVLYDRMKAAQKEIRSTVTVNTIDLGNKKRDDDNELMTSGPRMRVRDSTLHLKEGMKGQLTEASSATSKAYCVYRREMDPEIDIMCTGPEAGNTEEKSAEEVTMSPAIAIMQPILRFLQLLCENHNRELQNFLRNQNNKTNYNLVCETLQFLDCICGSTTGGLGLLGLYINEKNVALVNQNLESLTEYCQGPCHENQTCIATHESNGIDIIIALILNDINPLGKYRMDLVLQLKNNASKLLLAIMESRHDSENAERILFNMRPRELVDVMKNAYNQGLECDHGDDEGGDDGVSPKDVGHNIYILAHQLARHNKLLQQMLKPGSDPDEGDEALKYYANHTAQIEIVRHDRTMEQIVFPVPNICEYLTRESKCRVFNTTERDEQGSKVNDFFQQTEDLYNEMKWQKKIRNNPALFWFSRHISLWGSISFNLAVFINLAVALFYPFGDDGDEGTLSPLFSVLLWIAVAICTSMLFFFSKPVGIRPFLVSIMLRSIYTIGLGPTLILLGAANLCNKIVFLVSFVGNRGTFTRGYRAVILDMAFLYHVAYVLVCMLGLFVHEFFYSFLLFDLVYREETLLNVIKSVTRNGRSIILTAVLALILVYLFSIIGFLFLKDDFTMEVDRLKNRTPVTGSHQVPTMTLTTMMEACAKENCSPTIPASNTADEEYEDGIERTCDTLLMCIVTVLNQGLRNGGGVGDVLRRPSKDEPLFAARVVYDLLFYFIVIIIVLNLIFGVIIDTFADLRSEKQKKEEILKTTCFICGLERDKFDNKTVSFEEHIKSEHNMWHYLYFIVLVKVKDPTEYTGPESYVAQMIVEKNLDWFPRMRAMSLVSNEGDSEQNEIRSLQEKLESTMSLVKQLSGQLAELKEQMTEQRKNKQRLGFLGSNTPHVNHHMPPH

Row | % engagement PNPLA8_C100 [1] | % engagement ITPR2_C292 [2] | SMILES
1 | 70.5% | 50.5% | C=CC(=O)N1C[C@H](c2ccc(Br)cc2)[C@H]1C(=O)Nc1cccc2cccnc12 [MY-3B, (2S,3S)-1-acryloyl-3-(4-bromophenyl)-N-(quinolin-8-yl)azetidine-2-carboxamide]
2 | 59.5% | 70% | C=CC(=O)N1C[C@H](c2ccc(Br)cc2)[C@@H]1C(=O)Nc1cccc2cccnc12 [MY-1B, (2R,3S)-1-acryloyl-3-(4-bromophenyl)-N-(quinolin-8-yl)azetidine-2-carboxamide]
3 | 48% | 48.5% | C=CC(=O)N1C[C@H](c2ccc(Br)cc2)[C@H]1C(=O)Nc1cccc2cccnc12 [MY-3A, (2S,3S)-1-acryloyl-3-(4-bromophenyl)-N-(quinolin-8-yl)azetidine-2-carboxamide]
4 | 67% | 24.5% | C=CC(=O)N1C[C@@H](c2ccc(Br)cc2)[C@H]1C(=O)Nc1cccc2cccnc12 [MY-1A, (2S,3R)-1-acryloyl-3-(4-bromophenyl)-N-(quinolin-8-yl)azetidine-2-carboxamide]
